Experimental data reported in ChEMBL document CHEMBL2150873, “Identification of imidazo-pyrrolopyridines as novel and potent JAK1 inhibitors” (J Med Chem, 2012).
Values belong to the molecule of their own block, whether it stands above or below them.

Tests used:
[1] = Lipophilicity, log D of the compound after 1 hr by LC/MS/MS analysis at pH 7.2; type: physicochemical; details: buffer
in vitro = details: human, liver microsomes, t1/2
[2] = Apparent permeability from apical to basal side of MDCK cells at 10 uM; type: ADME, cell-based, Canis lupus familiaris; details: dog
[3] = Half life in Sprague-Dawley rat hepatocytes at 1 uM by LC/MS/MS analysis; type: ADME, cell-based, Liver, Hepatocyte
[4] = Dose normalized clearance in Sprague-Dawley rat at 1 mg/kg, iv; type: ADME, organism-based; set-up: dose 1 mg/kg, route intravenous; details: in vivo, read-out: Dose normalized clearance
Rattus norvegicus [5] = test: Dose normalized AUC in Sprague-Dawley rat at 5 mg/kg, po; type: ADME, organism-based; set-up: dose 5 mg/kg, route oral; details: in vivo
Rattus norvegicus [6] = test: Dose normalized Cmax in Sprague-Dawley rat at 5 mg/kg, po; type: ADME, organism-based; set-up: dose 5 mg/kg, route oral; details: in vivo
[7] = Dose normalized volume of distribution at steady state in Sprague-Dawley rat at 1 mg/kg, iv and 5 mg/kg, po; type: ADME, organism-based; details: in vivo, read-out: Vdss/dose
[8] = Dose normalized oral bioavailability in Sprague-Dawley rat at 5 mg/kg; type: ADME, organism-based; details: in vivo, read-out: F/dose
Liver microsomes = details: human

SMILES: CC(C)(C)OC(=O)N[C@@H]1CC[C@@H](n2cnc3cnc4[nH]ccc4c32)C1
logD at 1 h [1]: 2.99
Papp A→B at 10 µM [2]: 11.2 ×10⁻⁶ cm/s
half-life at 1 µM [3]: 2.2 h
clearance [4]: 140 mL/min/kg
AUC/dose (Rattus norvegicus [5]): 1.3 µM·h
Cmax/dose (Rattus norvegicus [6]): 1100 nM
Vd [7]: 2.53 L/kg
bioavailability [8]: 73%
t1/2 (Liver microsomes): 5.6 h

SMILES: N#CCC(=O)N1CCC[C@@H](n2cnc3cnc4[nH]ccc4c32)C1
logD at 1 h [1]: 0.39
Papp A→B at 10 µM [2]: 0.3 ×10⁻⁶ cm/s
half-life at 1 µM [3]: > 10 h
clearance [4]: 85 mL/min/kg
AUC/dose (Rattus norvegicus [5]): 0.3 µM·h
Cmax/dose (Rattus norvegicus [6]): 50 nM
Vd [7]: 1.87 L/kg
bioavailability [8]: 5%
half-life (in vitro): 1.4 h

SMILES: c1ncc(CN2CCC(n3cnc4cnc5[nH]ccc5c43)CC2)cn1
half-life (in vitro): 4 h

SMILES: CC(C)CC(=O)N1CCC(n2cnc3cnc4[nH]ccc4c32)CC1
half-life (in vitro): 0.5 h

SMILES: CS(=O)(=O)N1CCC(n2cnc3cnc4[nH]ccc4c32)CC1
logD at 1 h [1]: 1.04
Papp A→B at 10 µM [2]: 1.2 ×10⁻⁶ cm/s
half-life at 1 µM [3]: > 10 h
clearance [4]: 45 mL/min/kg
AUC/dose (Rattus norvegicus [5]): 2.3 µM·h
Cmax/dose (Rattus norvegicus [6]): 2900 nM
Vd [7]: 1.46 L/kg
bioavailability [8]: 36%
half-life (in vitro): 2.2 h

SMILES: CCN1CCC(n2cnc3cnc4[nH]ccc4c32)CC1
half-life (in vitro): 2.5 h

SMILES: FC(F)(F)CN1CCC(n2cnc3cnc4[nH]ccc4c32)CC1
half-life (in vitro): 3.8 h

SMILES: CN(C)CC(=O)N1CCC(n2cnc3cnc4[nH]ccc4c32)CC1
half-life (in vitro): 1.5 h

SMILES: CN1CCC[C@@H]1C(=O)N1CCC(n2cnc3cnc4[nH]ccc4c32)CC1
half-life (in vitro): 2.8 h

SMILES: CN1CCC[C@H]1C(=O)N1CCC(n2cnc3cnc4[nH]ccc4c32)CC1
half-life (in vitro): 4.7 h

SMILES: CC(C)N1CCC[C@H]1C(=O)N1CCC(n2cnc3cnc4[nH]ccc4c32)CC1
half-life (in vitro): 1.3 h

SMILES: CN1CCCC[C@H]1C(=O)N1CCC(n2cnc3cnc4[nH]ccc4c32)CC1
half-life (in vitro): 3.5 h

SMILES: CC1(n2cnc3cnc4[nH]ccc4c32)CCNCC1
half-life (in vitro): > 10 h

SMILES: CC1(n2cnc3cnc4[nH]ccc4c32)CCN(Cc2cncnc2)CC1
half-life (in vitro): 1.6 h

SMILES: CC1(n2cnc3cnc4[nH]ccc4c32)CCN(S(C)(=O)=O)CC1
logD at 1 h [1]: 1.14
Papp A→B at 10 µM [2]: 2.5 ×10⁻⁶ cm/s
half-life at 1 µM [3]: > 10 h
clearance [4]: 82 mL/min/kg
AUC/dose (Rattus norvegicus [5]): 2.3 µM·h
Cmax/dose (Rattus norvegicus [6]): 800 nM
Vd [7]: 2.72 L/kg
bioavailability [8]: 74%
half-life (in vitro): > 10 h

SMILES: CC1(n2cnc3cnc4[nH]ccc4c32)CCN(CC(F)(F)F)CC1
half-life (in vitro): 1.6 h

SMILES: CC1(n2cnc3cnc4[nH]ccc4c32)CCN(CCC#N)CC1
half-life (in vitro): 2.3 h

SMILES: c1cc2c(ncc3ncn([C@H]4CC[C@H](N5CCOCC5)CC4)c32)[nH]1
half-life (in vitro): 6.8 h

SMILES: c1cc2c(ncc3ncn([C@H]4CC[C@@H](N5CCOCC5)CC4)c32)[nH]1
half-life (in vitro): 3.7 h

SMILES: CC(C)(C)OC(=O)N[C@@H]1CC[C@@H](n2cnc3cnc4[nH]ccc4c32)C1 (racemic)
half-life (in vitro): 5.5 h

SMILES: CC(C)(C)OC(=O)N[C@H]1CC[C@@H](n2cnc3cnc4[nH]ccc4c32)C1 (racemic)
half-life (in vitro): 1.8 h

The next lines start with the values.

logD at 1 h [1]: 1.9
half-life (in vitro): > 10 h
SMILES: COC(=O)N[C@H]1CC[C@H](n2cnc3cnc4[nH]ccc4c32)CC1

logD at 1 h [1]: 2.9
Papp A→B at 10 µM [2]: 32.3 ×10⁻⁶ cm/s
half-life at 1 µM [3]: 0.5 h
clearance [4]: 170 mL/min/kg
Cmax/dose (Rattus norvegicus [6]): 40 nM
Vd [7]: 6.39 L/kg
bioavailability [8]: < 1%
half-life (in vitro): 0.8 h
SMILES: c1ccc(CN2CCC(n3cnc4cnc5[nH]ccc5c43)CC2)cc1

half-life (in vitro): 2 h
SMILES: N#CCC(=O)N1CCC(n2cnc3cnc4[nH]ccc4c32)CC1

half-life (in vitro): 1.4 h
SMILES: O=C(c1ccccc1)N1CCC(n2cnc3cnc4[nH]ccc4c32)CC1

half-life (in vitro): 0.7 h
SMILES: O=S(=O)(c1ccccc1)N1CCC(n2cnc3cnc4[nH]ccc4c32)CC1

logD at 1 h [1]: 1.72
Papp A→B at 10 µM [2]: 8.2 ×10⁻⁶ cm/s
half-life at 1 µM [3]: > 10 h
clearance [4]: 96 mL/min/kg
AUC/dose (Rattus norvegicus [5]): 1.6 µM·h
Cmax/dose (Rattus norvegicus [6]): 1800 nM
Vd [7]: 2.37 L/kg
bioavailability [8]: 48%
half-life (in vitro): 7.5 h
SMILES: N#CCCN1CCC(n2cnc3cnc4[nH]ccc4c32)CC1

logD at 1 h [1]: 3.2
half-life (in vitro): 1.5 h
SMILES: CC(C)(C)OC(=O)N[C@H]1CC[C@H](n2cnc3cnc4[nH]ccc4c32)CC1

logD at 1 h [1]: -0.44
Papp A→B at 10 µM [2]: 0.2 ×10⁻⁶ cm/s
half-life at 1 µM [3]: > 10 h
clearance [4]: 65 mL/min/kg
AUC/dose (Rattus norvegicus [5]): 0.22 µM·h
Cmax/dose (Rattus norvegicus [6]): 20 nM
Vd [7]: 13.9 L/kg
bioavailability [8]: < 1%
half-life (in vitro): 3.7 h
SMILES: N[C@H]1CC[C@H](n2cnc3cnc4[nH]ccc4c32)CC1

half-life (in vitro): 5.5 h
SMILES: N[C@H]1CC[C@@H](n2cnc3cnc4[nH]ccc4c32)CC1

half-life (in vitro): 2.7 h
SMILES: CC(C)C(=O)N[C@H]1CC[C@H](n2cnc3cnc4[nH]ccc4c32)CC1

half-life (in vitro): 4.7 h
SMILES: c1cc2c(ncc3ncn([C@H]4CC[C@H](NCC5CC5)CC4)c32)[nH]1

logD at 1 h [1]: 0.97
Papp A→B at 10 µM [2]: 1.5 ×10⁻⁶ cm/s
half-life at 1 µM [3]: 9.8 h
clearance [4]: 120 mL/min/kg
AUC/dose (Rattus norvegicus [5]): 0.7 µM·h
Cmax/dose (Rattus norvegicus [6]): 600 nM
Vd [7]: 3.96 L/kg
bioavailability [8]: 28%
half-life (in vitro): 5 h
SMILES: N#CCCN[C@H]1CC[C@H](n2cnc3cnc4[nH]ccc4c32)CC1

half-life (in vitro): 0.8 h
SMILES: N#Cc1cccc(CN[C@H]2CC[C@H](n3cnc4cnc5[nH]ccc5c43)CC2)c1

half-life (in vitro): 1.8 h
SMILES: CS(=O)(=O)N[C@H]1CC[C@H](n2cnc3cnc4[nH]ccc4c32)CC1

half-life (in vitro): > 10 h
SMILES: COC(=O)N(C)[C@H]1CC[C@H](n2cnc3cnc4[nH]ccc4c32)CC1

logD at 1 h [1]: 1.2
half-life (in vitro): 5.8 h
SMILES: COC(=O)N[C@@H]1CC[C@@H](n2cnc3cnc4[nH]ccc4c32)C1 (racemic)
